From PubChem BioAssay AID623910 (NMMLSC, 2012)

Tested on: mouse and human plasma, RED dialysis, LC/MS/MS, 4 h
Test: plasma protein binding, mouse and human, late-stage follow-up, ADME assay for GPR30 and estrogen receptor ligands, biochemical (AID 623910)

plasma protein binding (at 1 µM): 99.8% | plasma protein binding (human plasma binding, at 10 µM): 99.8% | plasma protein binding (mouse plasma binding, at 1 µM): 99.8% | plasma protein binding (mouse plasma binding, at 10 µM): 99.5%
Structure (SMILES): CC(=O)c1ccc2c(c1)[C@@H]1C=CC[C@@H]1[C@H](c1cc3c(cc1Br)OCO3)N2
